Data reported in US6875761B2 (Eisai Co., Ltd., priority 1997, dated 2005).
Structures can show the parent of a compound that is named as a salt.

How the values were obtained:
[1] = biological target: T1, serotonin 1A receptor (Rattus norvegicus, UniProt P19327); experiment: Binding test on [3H] 8-hydroxy-dipropylaminotetralin, hippocampus receptor fraction; set-up: species or system SD rats; conditions: rat hippocampus receptor fraction, 0.5 nM [3H] 8-OH-DPAT, room temperature 30 min; read-out: 5HT1
T1 construct: To the receptor fraction of the hippocampus were added a test compound and 0.5 nM of [^3H]; 8-hydroxy-dipropylaminotetralin; from tissue; host or cells: rat hippocampus membrane fraction
T1 sequence (P19327 1-422): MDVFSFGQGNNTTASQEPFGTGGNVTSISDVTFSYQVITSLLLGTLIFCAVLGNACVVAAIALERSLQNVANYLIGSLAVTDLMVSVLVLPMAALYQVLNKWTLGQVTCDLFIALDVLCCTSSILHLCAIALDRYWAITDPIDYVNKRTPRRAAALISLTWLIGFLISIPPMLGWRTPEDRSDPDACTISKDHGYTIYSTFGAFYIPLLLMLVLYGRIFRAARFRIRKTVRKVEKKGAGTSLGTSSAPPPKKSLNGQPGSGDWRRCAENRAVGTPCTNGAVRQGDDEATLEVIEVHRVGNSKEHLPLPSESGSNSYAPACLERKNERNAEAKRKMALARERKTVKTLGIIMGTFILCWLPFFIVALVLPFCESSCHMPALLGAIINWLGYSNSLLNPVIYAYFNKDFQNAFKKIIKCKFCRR

[2] = biological target: T2, serotonin 2 receptor (Rattus norvegicus, UniProt P14842); experiment: Binding test on [3H] ketanserin, cerebral cortex receptor fraction; set-up: species or system SD rats; conditions: 0.3 nM [3H] ketanserin, 37° C. 15 min, read-out: 5HT2
T2 construct: To the receptor fraction of the cerebral cortex were added a test compound and 0.3 nM of [^3H] ketanserin; from tissue; host or cells: rat cerebral cortex membrane fraction
T2 sequence (P14842 whole entry): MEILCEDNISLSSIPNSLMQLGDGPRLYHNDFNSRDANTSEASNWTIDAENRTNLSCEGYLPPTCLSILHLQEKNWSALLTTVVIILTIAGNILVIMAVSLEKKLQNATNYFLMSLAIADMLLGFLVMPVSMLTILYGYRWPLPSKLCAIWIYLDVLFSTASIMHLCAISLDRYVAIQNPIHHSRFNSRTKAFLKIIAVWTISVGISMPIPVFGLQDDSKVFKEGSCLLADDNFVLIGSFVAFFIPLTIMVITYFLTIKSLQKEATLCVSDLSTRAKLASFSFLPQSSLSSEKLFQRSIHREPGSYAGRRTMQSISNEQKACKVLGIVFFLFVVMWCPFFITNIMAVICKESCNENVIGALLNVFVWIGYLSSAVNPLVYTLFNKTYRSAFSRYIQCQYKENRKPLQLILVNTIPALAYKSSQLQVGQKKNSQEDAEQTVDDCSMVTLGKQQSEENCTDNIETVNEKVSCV

SMILES	Ki [1]	Ki [2]
CCN1CCN(c2nc(-c3ccc(N4CCN(C(C)=O)CC4)nc3)cc3ccccc23)CC1 [Example 99, 3-[2-(4-Acetylpiperazin-1-yl)pyridin-5-yl]-1-(4-ethylpiperazin-1-yl)isoquinoline Trihydrochloride]	3.5 nM	6.2 nM
CCN1CCN(c2nc(-c3ccc(OCCO)cc3OC)cc3ccccc23)CC1 [Example 425, 1-(4-ethylpiperazin-1-yl)-3-[4-(2-hydroxyethoxy)-2-methoxyphenyl]isoquinoline]	321 nM	2.55 nM
CCN1CCN(c2nc(-c3ccc(C4=CCOCC4)cc3)cc3ccccc23)CC1 [Example 84, 3-[4-(5,6-Dihydro-2H-pyran-4-yl)phenyl]-1-(4-ethylpiperazin-1-yl)isoquinoline Hydrochloride]	72.1 nM	0.9 nM
CCN1CCN(c2nc(-c3ccc(OCC(C)(C)O)cc3)cc3sccc23)CC1 [Example 290, 6-[4-(2-methyl-2-hydroxypropoxy)phenyl]-4-(4-ethylpiperazin-1-yl)thieno[3,2-c]pyridine dihydrochloride]	54.7 nM	1.35 nM
CCN1CCN(c2nc(-c3ccc(CCC(C)OC)nc3)cc3ccccc23)CC1 (centres unmarked) [Example 144, 1-(1-Ethylpiperazin-4-yl)-3-[2-(3-Methoxybutyl)Pyridin-5-yl]Isoquinoline Oxalate]	4.8 nM	12.4 nM
CCN1CCN(c2nc(N3CCN(c4ccccc4)CC3)cc3ccccc23)CC1 [Example 158, 1-(1-ethylpiperazin-4-yl)-3-(1-phenylpiperazin-4-yl)isoquinoline]	0.41 nM	1.08 nM
CCN1CCN(c2nc(-c3ccc(CCCOC)cn3)cc3ccccc23)CC1 [Example 141, 1-(1-Ethylpiperazin-4-yl)-3-[5-(3-Methoxypropyl)Pyridin-2-yl]Isoquinoline Oxalate]	2.9 nM	20.4 nM
CCN1CCN(c2nc(-c3ccc(OCCCNC(C)=O)cc3)cc3ccccc23)CC1 [Example 50, 3-[4-(3-Acetamidepropoxy)Phenyl]-1-(4-Ethylpiperazin-1-Yl)Isoquinoline Hydrochloride]	25.2 nM	21.9 nM
CN1CCN(c2nc(-c3ccc(OCCO)cc3)cc3ccccc23)CC1 [Example 3, 1-(1-methylpiperazin-4-yl)-3-[4-(2-hydroxyethoxy)phenyl]isoquinoline]	65 nM	3.8 nM
CCN1CCN(c2nc(-c3ccc(CN4CCSCC4)cc3)cc3ccccc23)CC1 [Example 94, 3-(4-Thiomorpholinylmethylphenyl)-1-(4-ethylpiperazin-1-yl)isoquinoline Hydrochloride]	6.4 nM	41.2 nM
CCN1CCN(c2nc(C#CC(=O)c3ccccc3)cc3ccccc23)CC1 [Example 184, 1-(1-Ethylpiperazin-4-Yl)-3-Benzoylethynylisoquinoline Oxalate]	30.9 nM	122 nM
CCN1CCN(c2nc(-c3ccc(OCCCc4ccncc4)cc3)cc3ccccc23)CC1 [Example 57, 3-{4-[3-(4-Pyridyl)Propoxy]Phenyl}-1-(4-Ethylpiperazin-1-Yl)Isoquinoline Hydrochloride]	57.2 nM	4.6 nM
CCN1CCN(c2nc(NS(=O)(=O)c3ccc(OC)cc3)cc3ccccc23)CC1 [Example 423, 1-(4-ethylpiperazin-1-yl)-3-(4-methoxybenzenesulfonamide)isoquinoline]	9.81 nM	332 nM
CCN1CCN(c2nc(-c3ccc(OCCO)c(C)c3)cc3ccccc23)CC1 [Example 40, 3-[3-methyl-4-(2-hydroxyethoxy)phenyl]-1-(4-ethylpiperazin-1-yl)isoquinoline hydrochloride]	26.7 nM	3.1 nM
CCN1CCN(c2nc(C#Cc3ccccc3)cc3ccccc23)CC1 [Example 177, 1-(1-Ethylpiperazin-4-Yl)-3-(Phenylethynyl)Isoquinoline Dihydrochloride]	45 nM	0.5 nM
CCN1CCN(c2nc(-c3ccc4c(c3)CC(CO)CO4)cc3ccccc23)CC1 (centres unmarked) [Example 122, 3-(3-Hydroxymethylchroman-6-yl)-1-(4-Ethylpiperazin-1-yl)Isoquinoline Hydrochloride]	40.1 nM	19.9 nM
CCN1CCN(c2nc(NS(=O)(=O)c3ccccc3)cc3ccccc23)CC1 [Example 422, 3-benzenesulfoneamide-1-(4-ethylpiperazin-1-yl)isoquinoline]	5.32 nM	175 nM

Next, values leading:

Ki [1]	Ki [2]	SMILES
80.9 nM	0.14 nM	CN1CCN(c2nc(-c3ccc(OCC(C)(C)O)cc3)cc3sccc23)CC1 [Example 288, 6-[4-(2-methyl-2-hydroxypropoxy)phenyl]-4-(4-methylpiperazin-1-yl)thieno[3,2-c]pyridine hydrochloride]
13 nM	0.93 nM	CCN1CCN(c2nc(/C=C\c3ccc(OC)cc3)cc3ccccc23)CC1 [Example 191, 1-(1-Ethylpiperazin-4-Yl)-3-[Cis-2-(4-Methoxyphenyl)Ethenyl]Isoquinoline Oxalate]
75.4 nM	5.98 nM	CN1CCN(c2nc(-c3ccc(OCCO)cc3)cc3ccsc23)CC1 [Example 253, 5-[4-(2-hydroxyethoxy)phenyl]-7-(4-methylpiperazin-1-yl)thieno[2,3-c]pyridine Hydrochloride]
22.2 nM	17.9 nM	CCN1CCN(c2nc(/C=C(\C)c3cccc(N4CCOCC4)c3)cc3ccccc23)CC1 [Example 207, 3-{(E)-2-Methyl-2-[3-(4-Morpholinyl)Phenyl]Ethenyl}-1-(4-Ethylpiperazin-1-Yl)Isoquinoline Oxalate]
26.2 nM	9.9 nM	CCN1CCN(c2nc(-c3ccc(C(=O)NC)cc3)cc3ccccc23)CC1 [Example 365, 1-(4-ethylpiperazin-1-yl)-3-[4-(N-methylcarbamoyl)phenyl]isoquinoline dihydrochloride]
75.4 nM	40 nM	CCN1CCN(c2nc(-c3ccc(C(O)CC(C)C)cc3)cc3ccsc23)CC1 (centres unmarked) [Example 255, 7-(1-ethylpiperazin-4-yl)-5-[4-(1-hydroxy-3-methylbutyl)phenyl]thieno[2,3-c]pyridine Dihydrochloride]
41 nM	4.3 nM	CCN1CCN(c2nc(-c3cc(F)c(OCCF)c(F)c3)cc3ccccc23)CC1 [Example 371, 1-(4-ethylpiperazin-1-yl)-3-[3,5-difluoro-4-(2-fluoroethoxy)phenyl]isoquinoline dihydrochloride]
76.4 nM	1.44 nM	CN1CCN(c2nc(-c3ccc(OCCO)cc3)cc3sccc23)CC1 [Example 279, 4-(4-methylpiperazin-1-yl)-6-[4-(2-hydroxyethoxy)phenyl]thieno[3,2-c]pyridine hydrochloride]
53 nM	17.2 nM	CCN1CCN(c2nc(-c3ccc(CC4CCOCC4)cc3)cc3ccccc23)CC1 [Example 399, 1-(4-Ethylpiperazin-1-yl)-3-[4-(tetrahydropyran-4-yl)Methylphenyl]Isoquinoline Dihydrochloride]
5.5 nM	0.52 nM	CCN1CCN(c2nc(/C=C/c3ccc(CS(C)(=O)=O)cc3)cc3ccccc23)CC1 [Example 203, 3-[(E)-2-(4-Methylsulfonylmethylphenyl)Ethenyl]-1-(4-Ethylpiperazin-1-Yl)Isoquinoline Oxalate]
70.7 nM	4.26 nM	CCN1CCN(c2nc(/C=C/c3ccccc3F)cc3ccccc23)CC1 [Example 197, 1-(1-Ethylpiperazin-4-Yl)-3-[Trans-2-(2-Fluorophenyl)Ethenyl]isoquinoline Oxalate]
2.48 nM	11.7 nM	CCN1CCN(c2nc(/C=C/c3cccc(OCCO)c3)cc3ccsc23)CC1 [Example 430, 7-(4-ethylpiperazin-1-yl)-5-[3-(2-hydroxyethoxy)styryl]thieno [2,3-c]pyridine hydrochloride]
25.5 nM	18.5 nM	CCN1CCN(c2nc(/C=C/c3cccc(N4CCOCC4)c3)cc3ccccc23)CC1 [Example 204, 3-{(E)-2-[3-(4-Morpholinyl)Phenyl]Ethenyl}-1-(4-Ethylpiperazin-1-Yl)Isoquinoline Oxalate]
43.3 nM	1.44 nM	CCN1CCN(c2nc(-c3ccc(CCC(C)(C)O)cc3)cc3sccc23)CC1 [Example 291, 4-[4-ethylpiperazin-1-yl)-6-[4-(3-hydroxy-3-methylbutyl)phenyl]thieno[3,2-c]pyridine dihydrochloride]
15.2 nM	0.41 nM	CCN1CCN(c2nc(-c3ccc(CC(C)CO)cc3)cc3ccsc23)CC1 (centres unmarked) [Example 441, 7-(4-ethylpiperazin-1-yl)-5-[4-(3-hydroxy-2-methylpropyl)phenyl]thieno[2,3-c]pyridine dihydrochloride]
3.5 nM	2.6 nM	CCN1CCN(c2nc(-c3ccc(S(=O)(=O)NC)cc3)cc3ccccc23)CC1 [Example 361, 1-(4-ethylpiperazin-1-yl)-3-[4-(N-methylsulfamoyl)phenyl]isoquinoline dihydrochloride]
4 nM	54.6 nM	CCN1CCN(c2nc(-c3ccc(S(=O)(=O)CCCO)cc3)cc3ccccc23)CC1 [Example 352, 1-(4-ethylpiperazin-1-yl)-3-[4-(3-hydroxypropyl)sulfonylphenyl]isoquinoline dihydrochloride]
